Reference: patent US9796706B2, “Inhibitors of Jun N-terminal kinase” (IMAGO PHARMACEUTICALS, INC., priority 2009, dated 2017)

Experiments:
Type in all cases: biochemical
Conditions in all cases: procedures of Example 14 (TR-FRET)
JNK3 = JNK3 (Homo sapiens (Human), UniProt P53779); test: JNK3 TR-FRET kinase assay (Example 14)
How it was run: (§1)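 Two TR-FRET formats were used for each JNK isoform. In the direct one, preactivated aJNK phosphorylated EPIW-1 at about 1 mM final ATP (RT, 15 min). Both were EDTA-quenched and read by HTRF.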

JNK1 = JNK1 (Homo sapiens (Human), UniProt P45983); test: JNK1 TR-FRET kinase assay (Example 14)
How it was run: as §1

JNK2 = JNK2 (Homo sapiens (Human), UniProt P45984); test: JNK2 TR-FRET kinase assay (Example 14)
How it was run: as §1

Sequence of JNK3 (P53779 whole entry, species assumed, canonical isoform): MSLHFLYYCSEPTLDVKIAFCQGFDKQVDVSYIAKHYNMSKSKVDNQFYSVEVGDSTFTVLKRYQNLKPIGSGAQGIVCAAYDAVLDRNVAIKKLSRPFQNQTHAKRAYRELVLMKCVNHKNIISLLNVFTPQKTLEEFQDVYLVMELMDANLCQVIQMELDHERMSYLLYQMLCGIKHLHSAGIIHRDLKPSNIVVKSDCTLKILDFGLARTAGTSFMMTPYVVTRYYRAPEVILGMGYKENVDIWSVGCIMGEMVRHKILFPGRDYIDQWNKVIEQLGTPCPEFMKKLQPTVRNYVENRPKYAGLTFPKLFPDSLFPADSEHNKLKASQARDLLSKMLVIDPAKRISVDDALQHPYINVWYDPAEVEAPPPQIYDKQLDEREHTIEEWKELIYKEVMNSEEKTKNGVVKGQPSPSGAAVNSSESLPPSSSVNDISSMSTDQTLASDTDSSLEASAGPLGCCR
Sequence of JNK2 (P45984 whole entry, species assumed): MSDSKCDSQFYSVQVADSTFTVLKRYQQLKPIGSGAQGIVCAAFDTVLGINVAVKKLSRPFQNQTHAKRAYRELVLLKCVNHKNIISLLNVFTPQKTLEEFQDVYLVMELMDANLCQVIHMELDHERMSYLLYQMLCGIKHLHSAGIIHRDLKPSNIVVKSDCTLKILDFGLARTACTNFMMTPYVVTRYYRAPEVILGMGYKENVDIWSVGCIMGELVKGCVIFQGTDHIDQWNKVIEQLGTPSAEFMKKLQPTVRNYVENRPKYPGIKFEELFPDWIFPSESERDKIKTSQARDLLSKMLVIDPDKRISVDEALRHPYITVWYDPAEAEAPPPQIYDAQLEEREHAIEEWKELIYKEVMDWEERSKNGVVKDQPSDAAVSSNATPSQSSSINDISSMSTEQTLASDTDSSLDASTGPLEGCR
Sequence of JNK1 (P45983 other isoform, or with tags, fused parts or gaps isoform P45983-2, species assumed): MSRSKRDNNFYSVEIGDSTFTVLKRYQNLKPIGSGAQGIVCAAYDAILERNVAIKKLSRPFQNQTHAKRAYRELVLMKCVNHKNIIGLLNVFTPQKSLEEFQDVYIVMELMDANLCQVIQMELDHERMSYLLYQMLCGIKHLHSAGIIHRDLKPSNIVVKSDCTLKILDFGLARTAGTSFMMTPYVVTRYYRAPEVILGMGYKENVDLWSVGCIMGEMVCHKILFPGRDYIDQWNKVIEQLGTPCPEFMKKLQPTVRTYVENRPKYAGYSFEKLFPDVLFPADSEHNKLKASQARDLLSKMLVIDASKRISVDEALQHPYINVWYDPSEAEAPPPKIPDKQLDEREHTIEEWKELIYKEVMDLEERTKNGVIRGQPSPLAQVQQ

SMILES	IC50 (JNK3)	IC50 (JNK1)	IC50 (JNK2)
O=C(Cn1c(=O)ccc2cc(OC(F)(F)F)ccc21)Nc1scc(Br)c1-c1ncn[nH]1 [N-(4-bromo-3-(1H-1,2,4-triazol-5-yl)thiophen-2-yl)-2-(2-oxo-6-(trifluoromethoxy)quinolin-1(2H)-yl)acetamide]	< 100 nM	< 100 nM	< 100 nM
O=C(CN1C(=O)CCc2cc(C(F)(F)F)ccc21)Nc1scc(Br)c1-c1ncn[nH]1 [N-(4-bromo-3-(1H-1,2,4-triazol-5-yl)thiophen-2-yl)-2-(2-oxo-6-(trifluoromethyl)-3,4-dihydroquinolin-1(2H)-yl)acetamide]	< 100 nM	< 100 nM	< 100 nM
O=C(Cn1c(=O)ccc2ccc(OC(F)(F)F)cc21)Nc1scc(Br)c1-c1ncn[nH]1 [N-(4-bromo-3-(1H-1,2,4-triazol-5-yl)thiophen-2-yl)-2-(2-oxo-7-(trifluoromethoxy)quinolin-1(2H)-yl)acetamide]	< 100 nM	< 100 nM	< 100 nM
O=C(Cn1c(=O)ccc2cnc(C(F)(F)F)cc21)Nc1scc(Br)c1-c1ncn[nH]1 [N-(4-bromo-3-(1H-1,2,4-triazol-5-yl)thiophen-2-yl)-2-(2-oxo-7-(trifluoromethyl)-1,6-naphthyridin-1(2H)-yl)acetamide]	< 100 nM	< 100 nM	< 100 nM
O=C(Cn1c(=O)ccc2ccc(C(F)(F)F)cc21)Nc1scc(Br)c1-c1ncn[nH]1 [N-(4-bromo-3-(1H-1,2,4-triazol-5-yl)thiophen-2-yl)-2-(2-oxo-7-(trifluoromethyl)quinolin-1(2H)-yl)acetamide]	< 100 nM	< 100 nM	< 100 nM
O=C(Cn1c(=O)ccc2c(F)cccc21)Nc1scc(Br)c1-c1ncn[nH]1 [N-(4-bromo-3-(1H-1,2,4-triazol-5-yl)thiophen-2-yl)-2-(5-fluoro-2-oxoquinolin-1(2H)-yl)acetamide]	< 100 nM	< 100 nM	< 100 nM
O=C(Cn1c(=O)ccn2nc(C(F)(F)F)cc12)Nc1scc(Br)c1-c1ncn[nH]1 [N-(4-bromo-3-(1H-1,2,4-triazol-5-yl)thiophen-2-yl)-2-(5-oxo-2-(trifluoromethyl)pyrazolo[1,5-a]pyrimidin-4(5H)-yl)acetamide]	< 100 nM	< 100 nM	< 100 nM
O=C(Cn1c(=O)ccc2cc(F)c(F)cc21)Nc1scc(Br)c1-c1ncn[nH]1 [N-(4-bromo-3-(1H-1,2,4-triazol-5-yl)thiophen-2-yl)-2-(6,7-difluoro-2-oxoquinolin-1(2H)-yl)acetamide]	< 100 nM	< 100 nM	< 100 nM
O=C(Cn1c(=O)ccc2cc(F)ccc21)Nc1scc(Br)c1-c1ncn[nH]1 [N-(4-bromo-3-(1H-1,2,4-triazol-5-yl)thiophen-2-yl)-2-(6-fluoro-2-oxoquinolin-1(2H)-yl)acetamide]	< 100 nM	< 100 nM	< 100 nM
O=C(Cc1cc2ncccc2cc1F)Nc1scc(Br)c1-c1ncn[nH]1 [N-(4-bromo-3-(1H-1,2,4-triazol-5-yl)thiophen-2-yl)-2-(6-fluoroquinolin-7-yl)acetamide]	100 to 10000 nM	< 100 nM	100 to 10000 nM
Cc1cn2c(CC(=O)Nc3scc(Br)c3-c3ncn[nH]3)csc2n1 [N-(4-bromo-3-(1H-1,2,4-triazol-5-yl)thiophen-2-yl)-2-(6-methylimidazo[2,1-b]thiazol-3-yl)acetamide]	100 to 10000 nM	< 100 nM	100 to 10000 nM
O=C(Cn1c(=O)ccc2ccc(F)cc21)Nc1scc(Br)c1-c1ncn[nH]1 [N-(4-bromo-3-(1H-1,2,4-triazol-5-yl)thiophen-2-yl)-2-(7-fluoro-2-oxoquinolin-1(2H)-yl)acetamide]	< 100 nM	< 100 nM	< 100 nM
O=C(Cc1cccc2cnccc12)Nc1scc(Br)c1-c1ncn[nH]1 [N-(4-bromo-3-(1H-1,2,4-triazol-5-yl)thiophen-2-yl)-2-(isoquinolin-5-yl)acetamide]	< 100 nM	< 100 nM	< 100 nM
O=C(Cc1cccc2ccncc12)Nc1scc(Br)c1-c1ncn[nH]1 [N-(4-bromo-3-(1H-1,2,4-triazol-5-yl)thiophen-2-yl)-2-(isoquinolin-8-yl)acetamide]	< 100 nM	< 100 nM	100 to 10000 nM

More lines, now with the values ahead:

IC50 (JNK3)	IC50 (JNK1)	IC50 (JNK2)	SMILES
< 100 nM	< 100 nM	100 to 10000 nM	O=C(Cn1c(=O)ccc2c(C(F)(F)F)cccc21)Nc1scc(Br)c1-c1ncn[nH]1 [N-(4-bromo-3-(1H-1,2,4-triazol-5-yl)thiophen-2-yl)-2-(2-oxo-5-(trifluoromethyl)quinolin-1(2H)-yl)acetamide]
< 100 nM	< 100 nM	< 100 nM	O=C(Cn1c(=O)ccc2nc(C(F)(F)F)ccc21)Nc1scc(Br)c1-c1ncn[nH]1 [N-(4-bromo-3-(1H-1,2,4-triazol-5-yl)thiophen-2-yl)-2-(2-oxo-6-(trifluoromethyl)-1,5-naphthyridin-1(2H)-yl)acetamide]
< 100 nM	< 100 nM	< 100 nM	O=C(Cn1c(=O)ccc2cc(C(F)(F)F)ccc21)Nc1scc(Br)c1-c1ncn[nH]1 [N-(4-bromo-3-(1H-1,2,4-triazol-5-yl)thiophen-2-yl)-2-(2-oxo-6-(trifluoromethyl)quinolin-1(2H)-yl)acetamide]
< 100 nM	< 100 nM	< 100 nM	O=C(Cn1c(=O)ccn2nccc12)Nc1scc(Br)c1-c1ncn[nH]1 [N-(4-bromo-3-(1H-1,2,4-triazol-5-yl)thiophen-2-yl)-2-(5-oxopyrazolo[1,5-a]pyrimidin-4(5H)-yl)acetamide]
< 100 nM	< 100 nM	< 100 nM	O=C(Cn1c(=O)ccc2cc(Cl)ccc21)Nc1scc(Br)c1-c1ncn[nH]1 [N-(4-bromo-3-(1H-1,2,4-triazol-5-yl)thiophen-2-yl)-2-(6-chloro-2-oxoquinolin-1(2H)-yl)acetamide]
< 100 nM	< 100 nM	< 100 nM	N#Cc1ccc2c(ccc(=O)n2CC(=O)Nc2scc(Br)c2-c2ncn[nH]2)c1 [N-(4-bromo-3-(1H-1,2,4-triazol-5-yl)thiophen-2-yl)-2-(6-cyano-2-oxoquinolin-1(2H)-yl)acetamide]
< 100 nM	< 100 nM	< 100 nM	C#Cc1ccc2c(ccc(=O)n2CC(=O)Nc2scc(Br)c2-c2ncn[nH]2)c1 [N-(4-bromo-3-(1H-1,2,4-triazol-5-yl)thiophen-2-yl)-2-(6-ethynyl-2-oxoquinolin-1(2H)-yl)acetamide]
< 100 nM	< 100 nM	< 100 nM	O=C(CN1C(=O)CCc2cc(F)ccc21)Nc1scc(Br)c1-c1ncn[nH]1 [N-(4-bromo-3-(1H-1,2,4-triazol-5-yl)thiophen-2-yl)-2-(6-fluoro-2-oxo-3,4-dihydroquinolin-1(2H)-yl)acetamide]
< 100 nM	< 100 nM	< 100 nM	O=C(Cc1c(F)ccc2ncccc12)Nc1scc(Br)c1-c1ncn[nH]1 [N-(4-bromo-3-(1H-1,2,4-triazol-5-yl)thiophen-2-yl)-2-(6-fluoroquinolin-5-yl)acetamide]
< 100 nM	< 100 nM	< 100 nM	O=C(CN1C(=O)CCc2ccc(Cl)cc21)Nc1scc(Br)c1-c1ncn[nH]1 [N-(4-bromo-3-(1H-1,2,4-triazol-5-yl)thiophen-2-yl)-2-(7-chloro-2-oxo-3,4-dihydroquinolin-1(2H)-yl)acetamide]
< 100 nM	< 100 nM	< 100 nM	N#Cc1ccc2ccc(=O)n(CC(=O)Nc3scc(Br)c3-c3ncn[nH]3)c2c1 [N-(4-bromo-3-(1H-1,2,4-triazol-5-yl)thiophen-2-yl)-2-(7-cyano-2-oxoquinolin-1(2H)-yl)acetamide]
< 100 nM	< 100 nM	< 100 nM	O=C(Cn1c(=O)ccc2cc(C(F)(F)F)c(F)cc21)Nc1scc(Br)c1-c1ncn[nH]1 [N-(4-bromo-3-(1H-1,2,4-triazol-5-yl)thiophen-2-yl)-2-(7-fluoro-2-oxo-6-(trifluoromethyl)quinolin-1(2H)-yl)acetamide]
< 100 nM	< 100 nM	100 to 10000 nM	O=C(Cc1cc(F)cc2ncccc12)Nc1scc(Br)c1-c1ncn[nH]1 [N-(4-bromo-3-(1H-1,2,4-triazol-5-yl)thiophen-2-yl)-2-(7-fluoroquinolin-5-yl)acetamide]
< 100 nM	< 100 nM	< 100 nM	O=C(Cc1ccc(F)c2cnccc12)Nc1scc(Br)c1-c1ncn[nH]1 [N-(4-bromo-3-(1H-1,2,4-triazol-5-yl)thiophen-2-yl)-2-(8-fluoroisoquinolin-5-yl)acetamide]
< 100 nM	< 100 nM	100 to 10000 nM	O=C(Cc1ccc(F)c2ncccc12)Nc1scc(Br)c1-c1ncn[nH]1 [N-(4-bromo-3-(1H-1,2,4-triazol-5-yl)thiophen-2-yl)-2-(8-fluoroquinolin-5-yl)acetamide]
100 to 10000 nM	< 100 nM	100 to 10000 nM	O=C(Cc1cccc2nccn12)Nc1scc(Br)c1-c1ncn[nH]1 [N-(4-bromo-3-(1H-1,2,4-triazol-5-yl)thiophen-2-yl)-2-(imidazo[1,2-a]pyridin-5-yl)acetamide]
< 100 nM	< 100 nM	< 100 nM	O=C(Cc1cccc2ncccc12)Nc1scc(Br)c1-c1ncn[nH]1 [N-(4-bromo-3-(1H-1,2,4-triazol-5-yl)thiophen-2-yl)-2-(quinolin-5-yl)acetamide]
< 100 nM	< 100 nM	100 to 10000 nM	O=C(Cn1c(=O)ccc2cc(C(F)(F)F)ccc21)Nc1scc(Br)c1-n1nccn1 [N-(4-bromo-3-(2H-1,2,3-triazol-2-yl)thiophen-2-yl)-2-(2-oxo-6-(trifluoromethyl)quinolin-1(2H)-yl)acetamide]
